Assay results taken from ChEMBL document CHEMBL1857833, “Screening and optimization of specific chemical series against human African Trypanosomiasis (HAT)”.
Values after ≈ are worked out from the molar mass of the structure shown.

Assays:
[1] = DNDI: Cytotoxicity against L929 mouse fibroblasts, 72 hour.; format: toxicity, cell-based; conditions: mouse, L929 mouse fibroblasts
[2] = system: Trypanosoma brucei; test: DNDI: Inhibition of Human African Trypanosomiasis, SBRI 427, in vitro; format: functional, organism-based
[3] = DNDI: half-life in mouse S9 microsomes at a concentration of 1uM; format: ADME, subcellular, Liver, S9 fraction
[4] = DNDI: Cytotoxicity against L929 mouse fibroblasts, CYTO-SP, 24 hour; format: toxicity, cell-based; conditions: mouse, L929 mouse fibroblasts
[5] = system: Trypanosoma brucei; test: DNDI: Inhibition of Human African Trypanosomiasis, EATRO 110, in vitro; format: functional, organism-based
[6] = DNDI: Lipophilicity measured in Chromatographic hydrophobicity index (CHI) assay, pH 7.4; format: physicochemical; conditions: buffer
[7] = DNDI: half life in human liver microsomes at a concentration of 10uM; format: ADME, Microsome
[8] = DNDI: in vitro intrinsic clearance in human liver microsomes at a concentration of 10uM; format: ADME, Microsome
[9] = DNDI: in vitro intrinsic clearance in mouse liver microsomes at a concentration of 10uM; format: ADME, Microsome; conditions: read-out: CLint in vitro
[10] = DNDI: half life in mouse liver microsomes at a concentration of 10uM; format: ADME, Microsome
[11] = DNDI: Solubility in phosphate buffered saline at pH7.4 measured by optical density (turbidimetry) at room temperature (OD-RT); format: physicochemical; conditions: pH 7.4
[12] = DNDI: Solubility in phosphate buffered saline at pH7.4 measured by nephelometry at room temperature (NEPH-RT); format: physicochemical; conditions: pH 7.4
[13] = mouse, microsomes, 1 µM
Description: DNDI: in vitro intrinsic clearance in mouse liver microsomes at a concentration of 1uM

[14] = in vitro; conditions: human, t (1 / 2)
Description: DNDI: half life in human liver microsomes at a concentration of 1uM

[15] = in vitro; conditions: human, CLint in vitro
Description: DNDI: in vitro intrinsic clearance in human liver microsomes at a concentration of 1uM

[16] = in vitro; conditions: mouse, t (1 / 2)
Description: DNDI: half life in mouse liver microsomes at a concentration of 1uM

[17] = system: Trypanosoma brucei; test: (§1) DNDI: Mean survival time in days (MSD) of mice after intraperitoneal injection of Human African Trypanosomiasis (HAT), EATRO 110, in vivo at 20 mg/kg/day for 4 days.; format: functional, Mus musculus
[18] = system: Trypanosoma brucei; test: as §1; format: functional, Mus musculus; remark: listed apart in the source
[19] = DNDI: % of compound remaining in mouse S9 microsomes at a concentration of 1uM after 60 mins; format: ADME, subcellular, Liver, S9 fraction
[20] = DNDI: % of compound remaining in rat S9 microsomes at a concentration of 1uM; format: ADME, subcellular, Liver, S9 fraction
[21] = system: Trypanosoma cruzi; test: DNDI: Inhibition of Chagas Disease parasite Trypanosoma cruzi (Tulahuen LacZ, Clone C4), in vitro.; format: functional, organism-based
[22] = DNDI: Cytotoxicity against L-6 rat myoblasts from skeletal muscle cells; format: toxicity, cell-based, L6; conditions: L-6 rat skeletal muscle myoblasts
[23] = system: Trypanosoma brucei rhodesiense; test: DNDI: Inhibition of Human African Trypanosomiasis (HAT), STIB 900, in vitro; format: functional, organism-based
[24] = system: Leishmania donovani; test: DNDI: Inhibition of formation of Leishmania donovani (strain MHOM/ET/67/L82) axenic amastigotes, in vitro.; format: functional, organism-based
[25] = system: Plasmodium falciparum; test: DNDI: Inhibition of the malaria parasite Plasmodium falciparum, in vitro; format: functional, organism-based; conditions: K1
[26] = system: Trypanosoma brucei; test: DNDI: Inhibition of Human African Trypanosomiasis, Cross 22, in vitro; format: functional, organism-based
[27] = Trypanosoma brucei, SBRI 427, read-out: IC50

Row | Compound | IC50 at 72 h [1] [µg/mL] | IC50 [2, 27] [µg/mL] | IC50 at 24 h [4] [µg/mL] | chromatographic logD [6] | solubility kinetic [12] [µM] | CLint in vitro [13] [µL/min/mg] | half-life at 1 µM ([16]; liver microsomes) [h] | further results
1 | c1ccc2c(Oc3nc(NCCN4CCCC4)nc4ccsc34)cccc2c1 | > 10 | 1.06 (≈ 2.71 µM) | – | – | – | – | – | half-life at 1 µM [3]: 3.5 min
2 | CCc1ccccc1Oc1ncccc1/C(=N\O)NC1CCCCC1 | – | 0.79 (≈ 2.33 µM) | > 50 | 4.31 | – | – | – | IC50 [5]: 2.15 µg/mL (≈ 6.33 µM); half-life at 10 µM [7]: 1.77 h; CLint in vitro [8]: 27 µL/min/mg; microsomal CLint at 10 µM [9]: 140 µL/min/mg; half-life at 10 µM [10]: 0.35 h; solubility kinetic [11]: 6.3 µM (≈ 2.14 µg/mL)
3 | O/N=C(\NC1CCCCC1)c1c(F)cccc1F | – | > 5 | > 50 | 3.67 | 50 (≈ 12.7 µg/mL) | 8 | – | half-life at 1 µM ([14]; microsomes): > 5.83 h; microsomal CLint at 1 µM ([15]; microsomes): < 5 µL/min/mg; half-life at 1 µM ([16]; microsomes): 1.73 h
4 | CSc1ccccc1Oc1ncccc1/C(=N\O)NC1CCCCC1 | – | 0.62 (≈ 1.73 µM) | > 50 | – | – | – | – | IC50 [5]: 1.34 µg/mL (≈ 3.75 µM)
5 | CCCCCC(C)NCc1coc(-c2ccc(OC(CC)CC)cc2)n1 (centres undefined) | 0.85 (≈ 2.37 µM) | 0.36 (≈ 1 µM) | – | – | 1 (≈ 0.359 µg/mL) | 2 | 7.93 | MSD [17]: 4 days; MSD [18]: 4 days
6 | COC/C(=N/O)c1ccc(OC)cc1 | – | > 5 | > 50 | 1.64 | 50 (≈ 9.76 µg/mL) | 19 | 0.733 | half-life at 1 µM ([14]; liver microsomes): 5.25 h; microsomal CLint at 1 µM ([15]; liver microsomes): 3 µL/min/mg
7 | CCCCCOc1ccc(-c2nc(CNC(C)CCCCC)co2)cc1 (centres undefined) | < 3.13 | 0.33 (≈ 0.92 µM) | 32.4 (≈ 90.4 µM) | – | – | 13 | 1.13 | remaining at 1 h, 1 µM [19]: 49.7%; remaining at 1 µM [20]: 0.555%
8 | O/N=C(/NC1CCCCC1)c1cccc2ccccc12 | – | 3.96 (≈ 14.8 µM) | > 50 | 4.43 | 50 (≈ 13.4 µg/mL) | 168 | 0.0833 | half-life at 1 µM ([14]; liver microsomes): 1.15 h; microsomal CLint at 1 µM ([15]; liver microsomes): 12 µL/min/mg
9 | COc1cccc(/C(=N/O)NC2CCCCC2)c1 | > 10 | 0.57 (≈ 2.3 µM) | > 50 | 3.84 | – | – | – | IC50 [21]: > 30 µg/mL; IC50 [22]: 63.3 µg/mL (≈ 255 µM); IC50 [23]: 14.4 µg/mL (≈ 58 µM); MSD [17]: 4 days; IC50 [24]: 34 µg/mL (≈ 137 µM); IC50 [25]: 4.4 µg/mL (≈ 17.7 µM); half-life at 10 µM [7]: 3.65 h; CLint in vitro [8]: 13 µL/min/mg; microsomal CLint at 10 µM [9]: 421 µL/min/mg; half-life at 10 µM [10]: 0.117 h; solubility kinetic [11]: 100 µM (≈ 24.8 µg/mL)
10 | CCCCc1ccc(-c2nc(CNC3[C@H]4C[C@@H]5C[C@@H](C[C@H]3C5)C4)co2)cc1 (some centres undefined) | – | – | > 50 | – | – | – | – | IC50 [21]: 3.9 µg/mL (≈ 10.7 µM); IC50 [22]: 8.8 µg/mL (≈ 24.1 µM); IC50 [26]: 0.44 µg/mL (≈ 1.21 µM); IC50 [2]: 0.77 ug/ml [middle of 4 runs]; IC50 [23]: 0.727 µg/mL (≈ 1.99 µM); MSD [18]: 4 days; IC50 [24]: 9.58 µg/mL (≈ 26.3 µM); IC50 [25]: 0.738 µg/mL (≈ 2.02 µM)
11 | CCCCCOc1ccc(-c2nc(CNC[C@@H]3CC[C@H]4C[C@@H]3C4(C)C)co2)cc1 | < 3.13 | 0.08 (≈ 0.202 µM) | > 50 | 6.45 | < 1 | 74 | 0.2 | MSD [18]: 4 days
12 | CCCCCC(C)NCc1coc(-c2ccc(Oc3ccccc3)cc2)n1 (centres undefined) | 1.6 (≈ 4.39 µM) | 0.42 (≈ 1.15 µM) | – | 4.67 | 6 (≈ 2.19 µg/mL) | 28 | 0.517 | remaining at 1 h, 1 µM [19]: 59.9%; remaining at 1 µM [20]: 0%
13 | O/N=C(\CNC1CCCCC1)c1ccccc1 | – | > 5 | > 50 | 2.78 | 25 (≈ 5.81 µg/mL) | 55 | 0.25 | half-life at 1 µM ([14]; liver microsomes): 2.77 h; microsomal CLint at 1 µM ([15]; liver microsomes): 5 µL/min/mg
14 | O/N=C(\NC1CCCCC1)c1ccc(F)cc1 | – | 4.92 (≈ 20.8 µM) | > 50 | 4.02 | > 200 | 53 | 0.267 | half-life at 1 µM ([14]; liver microsomes): 1.2 h; microsomal CLint at 1 µM ([15]; liver microsomes): 12 µL/min/mg
